Data as given in US20260061016A1, “Extrait aqueux des parties aériennes d'une plante du genre Aster et ses utilisations” (TAUDERMA, priority 2022, published 2026).
In brackets after ≈: the same amount, converted by molar mass.

System: S. aureus registered under number DSM799
Assay: Minimum inhibitory concentration (MIC), solution culture in 96-well plates followed by drop culture on TSB agar
Format: cell-based, Staphylococcus aureus
Method: The aim of the test is to compare the efficacy of an extract according to Example 1 or Example 2 and an extract of the Aster genus obtained from the root system (Without the Invention). The aim of the test is to identify the minimum inhibitory concentration (MIC) on a strain of S. aureus registered under number DSM799. The minimum inhibitory concentration (MIC) was determined in vitro using S. aureus solution culture in 96-well plates. The initial concentration of S. aureus was 1.25*10^5 CFU/ml. After 48 h incubation in the presence of a series of dilutions of the extract, a 20 μl drop was taken and placed on a TSB agar plate. The diameter of the “drop culture” is about 1.5 cm. Agar plate cultures were then incubated at 37° C. for 14 hours. The positive control corresponds to the maximum growth of a bacterium, that is, when it is fully confluent, meaning that bacterial colonies stick together and none are visible. Different extracts according to the invention and not according to the invention at different concentrations are thus compared. When no colonies, or separate individual colonies, are visible, then the bacteria have been inhibited by the extract. The extract concentration is then defined as MIC. […] The definition of MIC is as follows: Arbitrary units of bacterial growth were determined on agar culture plates (drop method). […]

- MIC (Staphylococcus aureus, 48 h incubation with extract dilutions, drop on TSB agar, 14 h at 37° C.): 50 µg/mL (≈ 155 µM)
SMILES: O=C(N[C@H](CO)[C@H](O)c1ccc([N+](=O)[O-])cc1)C(Cl)Cl [Chloramphenicol]
- Number of colonies (agar drop culture at the MIC): 0
